# Source: patent publication US5571942A, “Ring-substituted 2-amino-1,2,3,4-tetrahydronaphthalenes and 3-aminochromanes” (Eli Lilly and Company, priority 1995, dated 1996)
# Columns and labels:
# Set-up in all cases: species or system rat (male Sprague-Dawley)
# 5-HT1A receptors [1] = target: T1, 5-HT1A receptors (Rattus norvegicus, UniProt P19327); assay: in vivo lowering of brain 5-HIAA levels (5-HT1A agonist activity); details: sc, one hour after treatment
# T1 construct: from tissue; host or cells: cerebral cortex (crude synaptosomal membranes) of male Sprague-Dawley rats
# T1 sequence (P19327 1-422): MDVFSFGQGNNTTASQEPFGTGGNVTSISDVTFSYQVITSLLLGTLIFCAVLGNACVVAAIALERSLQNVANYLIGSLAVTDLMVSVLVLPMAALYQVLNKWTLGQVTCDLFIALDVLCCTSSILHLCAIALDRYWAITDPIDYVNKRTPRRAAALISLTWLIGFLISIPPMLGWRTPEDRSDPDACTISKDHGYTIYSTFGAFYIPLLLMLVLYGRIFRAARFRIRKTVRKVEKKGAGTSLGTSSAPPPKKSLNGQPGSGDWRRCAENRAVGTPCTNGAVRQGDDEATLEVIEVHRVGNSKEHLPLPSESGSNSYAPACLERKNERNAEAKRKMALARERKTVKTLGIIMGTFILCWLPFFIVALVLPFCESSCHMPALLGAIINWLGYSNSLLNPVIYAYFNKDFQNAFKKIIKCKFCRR
# Description: (§1) Compounds of this invention were also examined for their in vivo effects on brain 5-HIAA and serum corticosterone levels. Male Sprague-Dawley rats weighting 150-200 g were administered subcutaneously or orally with aqueous solutions of the test compound. One hour after treatment, the rats were decapitated and trunk blood collected. The blood was allowed to clot and then was centrifuged to separate the serum. The concentration of corticosterone in the serum was determined by the spectrofluorometric method of Solem, J. H.; Brinck-Johnsen, T., Scand. J. Clin. Invest. [Suppl. 80], 17, 1 (1965). The whole brains from the decapitated rats were quickly removed, frozen on dry ice, and stored at -15° C. 5-HIAA concentrations were measured by liquid chromatography with electrochemical detection as described by Fuller, R. W.; Snoddy, H. D.; Perry, K. W., Life Sci. 40, 1921 (1987).
# (§2) The results provided in columns 3-5 are indicative of 5-HT1A agonist activity.
# 5-HT1A receptors [2] = target: T1, 5-HT1A receptors; assay: in vivo elevation of serum corticosterone levels (5-HT1A agonist activity); details: sc, one hour after treatment
# Description: as §1, §2
# 5-HT1A receptors [3] = target: T1, 5-HT1A receptors; assay: in vitro binding: inhibition of 3H-8-OH-DPAT binding to synaptosomal membranes from rat cerebral cortex; details: 3H-8-OH-DPAT 2 nM, 37° C., 10 min, pH 7.4
# Description: Sites specifically labeled by tritiated 8-hydroxy-2-dipropylamino-1,2,3,4-tetrahydronaphthalene (^3 H-8-OH-DPAT) have been identified as 5-HT1A receptors. This general procedure is set forth in Wong et al., J. Neural Transm. 71:207-218 (1988).
# Male Sprague-Dawley rats (110-150 g) from Harlan Industries (Cumberland, Ind.) were fed a Purina Chow ad libitum for at least 3 days before being used in the studies. Rats were killed by decapitation. The brains were rapidly removed, and the cerebral cortices were dissected out at 4° C.
# Brain tissues were homogenized in 0.32M sucrose. After centrifugation at 1000×g for 10 min and then at 17000×g for 20 min, a crude synaptosomal fraction was sedimented. The pellet was suspended in 100 vol of 50 mM Tris-HCl, pH 7.4, incubated at 37° C. for 10 min, and centrifuged at 50000×g for 10 min. The process was repeated and the final pellet was suspended in ice-chilled 50 mM Tris-HCl, pH 7.4.
# Binding of ^3 H-8-OH-DPAT was performed according to the previously described method [Wong et al., J. Neural Transm. 64:251-269 (1985)]. Briefly, synaptosomal membranes isolated from cerebral cortex were incubated at 37° C. for 10 min. in 2 ml of 50 mM Tris-HCl, pH 7.4; 10 mM pargyline; 0.6 mM ascorbic acid; 5 mM CaCl2; 2 nM ^3 H-8-OH-DPAT and 0.1 to 1000 nm of the compound of interest. Binding was terminated by filtering samples under reduced pressure through glass fiber (GFB) filters. The filters were washed twice with 5 ml of ice cold buffer and placed in scintillation vials with 10 ml of PCS (Amersham/Searle) scintillation fluid. Radioactivity was measured with a liquid scintillation spectrometer. Unlabeled 8-OH-DPAT at 10 μM was also included in separate samples to establish non-specific binding. Specific binding of ^3 H-8-OH-DPAT is defined as the difference of radioactivity bound in the absence and in the presence of 10 μM unlabeled 8-OH-DPAT.
# as §2
smiles,measurement,setting,value
"CCCN(CCC)C1CCc2cccc(-c3cc[nH]n3)c2C1 (stereo not drawn) [Example 33, 2-Di-n-propylamino-8-(pyrazol-3-yl)-1,2,3,4-tetrahydronaphthalene]",5-HIAA MED (minimum effective dose lowering brain 5-HIAA levels),5-HT1A receptors [1],> 1.0 mg/kg
same,Corticosterone MED (minimum effective dose elevating serum corticosterone levels),5-HT1A receptors [2],> 1.0 mg/kg
same,IC50,5-HT1A receptors [3],4.9 nM
